Data reported in patent US5324722A, “2-, 3-, 5-, 8-, 10- and/or 11-substituted dibenzoxazepine compounds, pharmaceutical compositions and methods for treating pain” (G. D. Searle & Co., priority 1993, dated 1994).

Tests used:
mice = assay: Writhing Assay (PBQ-induced writhing); assay type: in vivo; details: for WRITHING ASSAY Number Out of Ten I.G. / WRITHING ASSAY Number Out of Ten S.C.: number of mice out of ten with analgesia, 30 minutes before PBQ i.p., male albino mice; for WRITHING ASSAY Number Out of Ten I.G.: 30 mg per kilogram intragastric; for WRITHING ASSAY Number Out of Ten S.C.: 30 mg per kilogram subcutaneous
From the text: The Writhing Assay is one of the most widely-used experimental procedures for measuring the analgesic activity of different narcotic and nonnarcotic analgesic agents, and involves the continuous, chemically-induced pain of visceral origin to an animal, such as a mouse orrat. [Gyires et al., Arch. int. Pharmacodyn, 267, 131-140 (1984); C. Vander Wende et al., Fed. Proc., 15, 494 (1956); Koster et al., Fed. Proc., 18, 412 (1959); and Witken et al., J. Pharmacol. exp. Ther., 133, 400-408 (1961).] Chemicals which may be used to induce this pain include phenylbenzoquinone (PBQ) and acetic acid. As a result of the chemical irritation to the animal, a characteristic stretching and writhing of the animal (dorsiflexion of the animal's back, extension of its hindlimbs and the strong contraction of its abdominal musculature) will generally occur. […] Drugs which reduce the number of writhes of the animal appear to restore the normal nociceptive threshold of the animal.
Charles River male albino mice, weighing 20 to 30 grams were used in this assay.
Thirty minutes after subcutaneous or intragastric administration to ten mice of 30 mg per kilogram of body weight of a compound of the present invention ("test compound"), […] per 10 g of body weight of a 0.025% w/v solution of PBQ was injected intraperitoneally into each mouse. Ten mice which were given saline in place of a test compound of the invention were used as a control group.
Five minutes later, each mouse was individually placed into a glass beaker for observation, and the number of writhes occurring during the following ten-minute period was counted.
A test compound was considered to have produced analgesia in a mouse if, in accordance with the conditions set forth above, and under the test criteria employed for this assay, after the administration of 30 mg per kilogram of body weight of a compound of the present invention to the mouse, the number of writhes elicited by a mouse injected with PBQ was equal to, or less than, one-half the median number of writhes recorded for the saline-treated control group of mice that day, as described by Taber in "Predictive Value of Analgesic Assays in Mice and Rats," Advances in BiochemicaI Psychopharmacology, 8, 191 (1974).
The results for the particular compounds of the present invention analyzed in this assay, and discussed in the examples identified below which correspond thereto, are presented in Table 1 hereinbelow under the heading "WRITHING ASSAY." The numbers in fractions indicate the number of mice out of ten in which a test compound produced analgesia. […] (b) Prostaglandin (PGE) Antagonism Assay

[1] = biological target: T1, prostaglandin E2-induced contractions of segments of guinea pig ileum (Cavia porcellus, UniProt A0A286XHJ6); assay: Prostaglandin (PGE) Antagonism Assay in guinea pig ileum; assay type: cell-based; details: pA2 against prostaglandin E2-induced contractions; initial concentration 3 micromolar; estimated or by Schild plot
T1 construct: Segments of ileum about 2 cm long were then cut and mounted in a 10 mL tissue bath; from tissue; host or cells: guinea pig ileum segments
T1 sequence (A0A286XHJ6 1-405): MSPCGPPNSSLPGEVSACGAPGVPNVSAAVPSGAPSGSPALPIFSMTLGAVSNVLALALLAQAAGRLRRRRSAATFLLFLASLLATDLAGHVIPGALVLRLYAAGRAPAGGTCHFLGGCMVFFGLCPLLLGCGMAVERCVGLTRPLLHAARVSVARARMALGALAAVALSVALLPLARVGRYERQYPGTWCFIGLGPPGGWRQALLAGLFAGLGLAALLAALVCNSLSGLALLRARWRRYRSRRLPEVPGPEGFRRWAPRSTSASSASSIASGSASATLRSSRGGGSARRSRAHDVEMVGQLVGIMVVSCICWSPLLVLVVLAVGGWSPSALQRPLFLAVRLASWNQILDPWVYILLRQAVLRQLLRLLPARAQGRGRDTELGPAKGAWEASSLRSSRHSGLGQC
Procedure: In order to determine the effectiveness of several of the compounds of the present invention ("test compounds") as prostaglandin E2 antagonists,a prostaglandin antagonism assay was conducted, as described below, to determine the ability of these compounds to inhibit prostaglandin E2 -induced contractions of segments of guinea pig ileum.
Male albino guinea pigs weighing 200 to 500 grams were sacrificed by cervical dislocation. The ilea were then quickly removed from the guinea pigs and placed in a modified Tyrode solution, a solution which is known to those skilled in the art, containing one-half of the usual amount of magnesium ions.
Segments of ileum about 2 cm long were then cut and mounted in a 10 mL tissue bath containing the modified Tyrode solution. The solution was maintained at 37° C. and aerated with a gaseous mixture of 95% oxygen and 5% carbon dioxide. Data for a control prostaglandin E2 dose response curve plotting concentration of prostaglandin E2 versus the intensity of contractions, detected isotonically, was then obtained by experimentally adjusting the dose of the prostaglandin E2 being injected into the tissue bath, in a manner known by those of skill in the art.
Solutions or suspensions containing an initial concentration (3 micromolar) of a test compound in modified Tyrode solution ("test solutions/suspensions") were then separately substituted for the control bath solution. Each test solution/suspension was then kept in constant contact with the ileum tissue, except for brief periods to drain the bath in preparation for rinsing with fresh test solution/suspension. A second prostaglandin E2 dose response curve was then generated for prostaglandin E2 in the presence of a test compound.
A dose ratio of EC50 doses was then calculated from the results of each test in a manner known by those of skill in the art. A test compound was determined to be "active" if the initial concentration used yielded at least a two-fold shift (dose ratio greater than or equal to 2) in the dose response curve for 10 prostaglandin E2.

Kb [1]	PGE ANTAGONISM IN GUINEA PIG ILEUM (pA2 value) [1]	Structure (SMILES)	relative analgesic potency in the Writhing Assay (mice; among the compounds of the invention tested, 30 mg per kilogram, mice)	WRITHING ASSAY Number Out of Ten I.G. (mice)	WRITHING ASSAY Number Out of Ten S.C. (mice)
–	–	CCS(=O)(=O)CCC(=O)NNC(=O)C1c2ccccc2Oc2ccc(Cl)cc2N1C(=O)OC(C)(C)C (stereo not drawn) [Example 7, 8-chlorodibenz[b,f][1,4]oxazepine-10,11(11H)-dicarboxylic acid, 10-(1,1-dimethylethyl) ester, 11-[2-[3-(ethylsulfonyl)-1-oxopropyl]hydrazide]]	most potent	5/10	3/10
1.29 µM	–	CCC1c2ccccc2Oc2ccc(Cl)cc2N1C(=O)NNC(=O)CCS(=O)(=O)CC (stereo not drawn) [Example 17, 8-chloro-11-ethyldibenz[b,f][1,4]oxazepine-10(11H)-carboxylic acid, 2-[3-(ethylsulfonyl)-1-oxopropyl]hydrazide]	–	1/10	2/10
–	5.94	CCCC1c2ccccc2Oc2ccc(Cl)cc2N1C(=O)NNC(=O)CCS(=O)(=O)CC (stereo not drawn) [Example 21, 8-chloro-11-propyldibenz[b,f][1,4]oxazepine-10(11H)-carboxylic acid. 2-[3-(ethylsulfonyl)-1-oxopropyl]hydrazide]	–	3/10	1/10
–	6.03	CCS(=O)(=O)CCC(=O)NNC(=O)N1c2cc(Cl)ccc2Oc2ccccc2C1C (stereo not drawn) [Example 13, 8-chloro-11-methyldibenz[b,f][1,4]oxazepine-10(11H)-carboxylic acid, 2-[3-(ethylsulfonyl)-1-oxopropyl]hydrazide]	–	5/10	5/10
